Literature values as cited in patent US20170100348A1, “Treatment Regime for Chronic Sinusitis” (priority 2015, published 2017).

Legend:
Pseudomonas aeruginosa = conditions: bacteria and phenolic compound incubated together on a plate
microbial organisms = conditions: background statement
Pseudomonas aerunginosa = conditions: background statement, FIG. 1

Compound | biofilm formation compared to the control (Pseudomonas aeruginosa) | preventing biofilm formation (streptococcus mutans) | bacteriocidal concentration (microbial organisms) | bacteriostatic concentration (microbial organisms) | concentration with activity against Pseudomonas aerunginosa (Pseudomonas aerunginosa) | fungicidal concentration (fungi)
Catechin | significant reduction in formation of biofilm |  |  |  |  | 
O=C(O[C@@H]1Cc2c(O)cc(O)cc2O[C@@H]1c1cc(O)c(O)c(O)c1)c1cc(O)c(O)c(O)c1 [epigallocatechin gallate] | significant reduction in formation of biofilm |  |  |  |  | 
O=C(OC[C@H]1O[C@@H](OC(=O)c2cc(O)c(O)c(OC(=O)c3cc(O)c(O)c(O)c3)c2)[C@H](OC(=O)c2cc(O)c(O)c(OC(=O)c3cc(O)c(O)c(O)c3)c2)[C@@H](OC(=O)c2cc(O)c(O)c(OC(=O)c3cc(O)c(O)c(O)c3)c2)[C@@H]1OC(=O)c1cc(O)c(O)c(OC(=O)c2cc(O)c(O)c(O)c2)c1)c1cc(O)c(O)c(OC(=O)c2cc(O)c(O)c(O)c2)c1 [tannic acid] | significant reduction in formation of biofilm |  |  |  |  | 
Oc1ccccc1 [Phenol] | significant reduction in formation of biofilm | effective | 0.04-1.0% | greater than 0.02% | 0.5-1.0% | greater than 1.3%
